According to patent publication US12371454B2, “Cyclic peptide compound having Kras inhibitory action” (priority 2019, dated 2025):
Starred links: 1 amine or outer side, 2 acyl side, 3 side chain; linkers in the order of their positions; H or OH if unused. Positions of bridges follow the written chain, without caps; N, C: chain ends. Non-standard residues stand in square brackets, D forms with d. Residues, ends and D or L forms follow the SMILES beside them. *: point of attachment. hPhe(3-Cl-4-CF3) = N[C@@H](CCc1ccc(C(F)(F)F)c(Cl)c1)C(=O)O; X48 = O=C([C@H](CCc1ccc(S(F)(F)(F)(F)F)cc1)N[*:1])[*:2]; hPhe(4-CF3) = N[C@@H](CCc1ccc(C(F)(F)F)cc1)C(=O)O; 3Oxa8azabicyclo(3.2.1)octane = C1CC2COCC1N2*; NMePhe(4-Me) = CN[C@@H](Cc1ccc(C)cc1)C(=O)O; NMeGly(cPent) = CN[C@H](C(=O)O)C1CCCC1; Phe(3-I) = N[C@@H](Cc1cccc(I)c1)C(=O)O; NMeCha = CN[C@@H](CC1CCCCC1)C(=O)O; NMeF = CN[C@@H](Cc1ccccc1)C(=O)O; d(β3hL) = CC(C)C[C@@H](N)CC(=O)O; N(CH2CH2)2CF2 = FC1(F)CCN(*)CC1; NMeD = CN[C@@H](CC(=O)O)C(=O)O; NMeL = CN[C@@H](CC(C)C)C(=O)O; NMeNva = CCC[C@H](NC)C(=O)O; NMeV = CN[C@H](C(=O)O)C(C)C; d(β3hA) = C[C@@H](N)CC(=O)O; NMeA = CN[C@@H](C)C(=O)O; NMeAib = CNC(C)(C)C(=O)O; Piperidide = C1CCN(*)CC1; Ac5c = NC1(C(=O)O)CCCC1; Aze = O=C(O)[C@@H]1CCN1; NBuGly = CCCCNCC(=O)O; Sar = CNCC(=O)O

What follows are molecules tested against T1, Kras and SOS1 (biotin-tagged human Kras loaded with GDP, His-tagged human SOS1) (Homo sapiens, UniProt P01116, G12D) (assay: Protein-protein interaction inhibition between Kras and SOS1 (KrasGl2D-SOS PPI) using AlphaScreen). Details: AlphaScreen; biotin-tagged human Kras loaded with GDP, His-tagged human SOS1; read-out: KRAS G12D-SOS PPI IC50.
T1 construct: made in house; host or cells: E. coli (stated for Kras only)
T1 sequence (P01116 1-188 isoform P01116-2 G12D): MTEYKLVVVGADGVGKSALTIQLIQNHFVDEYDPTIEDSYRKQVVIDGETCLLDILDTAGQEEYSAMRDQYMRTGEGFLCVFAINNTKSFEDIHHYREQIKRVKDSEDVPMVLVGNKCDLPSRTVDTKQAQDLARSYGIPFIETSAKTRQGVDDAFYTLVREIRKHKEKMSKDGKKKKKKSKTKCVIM
Format: binding
In short: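 Energy transfer from nickel-chelate donor beads bound to His-SOS1 to streptavidin acceptor beads bound to biotin-Kras, expressed in E. coli and loaded with GDP after purification, was monitored. Donors were excited at 680 nm; singlet oxygen reaching acceptors gave emission read at 520-620 nm.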
In the case of `CC[C@H](C)[C@@H]1NC(=O)[C@H](CC(C)C)N(C)C(=O)C[C@@H](C(=O)N2CCCCC2)N(C)C(=O)[C@H](CC(C)C)NC(=O)C(C)(C)N(C)C(=O)[C@H](Cc2ccccc2)NC(=O)[C@H](Cc2cccc(I)c2)NC(=O)CN(C)C(=O)[C@H](Cc2ccc(C)cc2)N(C)C(=O)[C@@H]2CCN2C(=O)[C@H](C)N(C)C1=O` [Compound 1015] ([NMeL]I[NMeA][Aze][NMePhe(4-Me)][Sar][Phe(3-I)]F[NMeAib]L[NMeD]-Piperidide; lactam N-11), the IC50 is reported as 18 nM. In the case of `CC[C@H](C)[C@@H]1NC(=O)[C@H](CC(C)C)N(C)C(=O)C[C@@H](C)NC(=O)[C@H](C(C)C)N(C)C(=O)C2(CCCC2)NC(=O)[C@@H]2CCCN2C(=O)[C@H](CCc2ccc(C(F)(F)F)c(Cl)c2)NC(=O)CN(C)C(=O)[C@H](CC2CCCCC2)N(C)C(=O)CN(C)C(=O)[C@@H]2CCN2C1=O` [Compound 1020] (cyclo([Ac5c][NMeV][d(β3hA)][NMeL]I[Aze][Sar][NMeCha][Sar][hPhe(3-Cl-4-CF3)]P)), the IC50 is reported as 51 nM. Work on `CC[C@H](C)[C@@H]1NC(=O)[C@H](CC(C)C)N(C)C(=O)C[C@@H](C)NC(=O)[C@H](CC(C)C)N(C)C(=O)C2(CCCC2)NC(=O)[C@@H]2CCCN2C(=O)[C@H](CCc2ccc(S(F)(F)(F)(F)F)cc2)NC(=O)CN(C)C(=O)[C@H](CC2CCCCC2)N(C)C(=O)CN(C)C(=O)CN(C)C1=O` [Compound 1021] (cyclo([Ac5c][NMeL][d(β3hA)][NMeL]I[Sar][Sar][NMeCha][Sar][X48]P)) yielded an IC50 of 240 nM. In the case of `CCC[C@H]1C(=O)N(C)CC(=O)N[C@@H](CCc2ccc(C(F)(F)F)c(Cl)c2)C(=O)N2CCC[C@H]2C(=O)NC2(CCCC2)C(=O)N(C)[C@@H](C(C)C)C(=O)N(C)[C@H](C(=O)N2CCCCC2)CC(=O)N(C)[C@@H](CC(C)C)C(=O)N[C@@H]([C@@H](C)CC)C(=O)N(C)[C@@H](C)C(=O)N2CC[C@H]2C(=O)N1C` [Compound 1027] ([NMeL]I[NMeA][Aze][NMeNva][Sar][hPhe(3-Cl-4-CF3)]P[Ac5c][NMeV][NMeD]-Piperidide; lactam N-11), the IC50 is reported as 8.2 nM. In the case of `CC[C@H](C)[C@@H]1NC(=O)[C@H](C)N(C)C(=O)C[C@@H](C)NC(=O)[C@H](CC(C)C)N(C)C(=O)[C@H](Cc2ccccc2)N(C)C(=O)[C@@H]2CCCN2C(=O)[C@H](CCc2ccc(C(F)(F)F)cc2)NC(=O)CN(C)C(=O)[C@H](CC2CCCCC2)N(C)C(=O)CN(C)C(=O)CN(C)C1=O` [Compound 1031] (cyclo(I[Sar][Sar][NMeCha][Sar][hPhe(4-CF3)]P[NMeF][NMeL][d(β3hA)][NMeA])), the IC50 is reported as 320 nM. Work on `CC[C@H](C)[C@@H]1NC(=O)[C@H](CC(C)C)N(C)C(=O)C[C@@H](CC(C)C)NC(=O)[C@H](C(C)C)N(C)C(=O)C2(CCCC2)NC(=O)[C@@H]2CCCN2C(=O)[C@H](CCc2ccc(C(F)(F)F)c(Cl)c2)NC(=O)CN(C)C(=O)[C@H](CC2CCCCC2)N(C)C(=O)CN(C)C(=O)CN(C)C1=O` [Compound 1032] (cyclo([Ac5c][NMeV][d(β3hL)][NMeL]I[Sar][Sar][NMeCha][Sar][hPhe(3-Cl-4-CF3)]P)) yielded an IC50 of 60 nM. `CCCCN1CC(=O)N(C)[C@@H](CC2CCCCC2)C(=O)N(C)CC(=O)N[C@@H](CCc2ccc(C(F)(F)F)c(Cl)c2)C(=O)N2CCC[C@H]2C(=O)NC2(CCCC2)C(=O)N(C)[C@@H](C(C)C)C(=O)N[C@H](C)CC(=O)N(C)[C@@H](CC(C)C)C(=O)N[C@@H]([C@@H](C)CC)C(=O)N(C)CC1=O` [Compound 1033] (cyclo([Ac5c][NMeV][d(β3hA)][NMeL]I[Sar][NBuGly][NMeCha][Sar][hPhe(3-Cl-4-CF3)]P)) was tested, and the IC50 was 360 nM. In the case of `CC[C@H](C)[C@@H]1NC(=O)[C@H](CC(C)C)N(C)C(=O)C[C@@H](C(=O)N2C3CCC2COC3)N(C)C(=O)[C@H](C2CCCC2)N(C)C(=O)C2(CCCC2)NC(=O)[C@H](CC(=O)N2CCC(F)(F)CC2)N(C)C(=O)[C@H](CCc2ccc(C(F)(F)F)c(Cl)c2)NC(=O)CN(C)C(=O)[C@H](CC2CCCCC2)N(C)C(=O)[C@@H]2CCN2C(=O)[C@H](C)N(C)C1=O` [Compound 1039] ([NMeL]I[NMeA][Aze][NMeCha][Sar][hPhe(3-Cl-4-CF3)][NMeD](N(CH2CH2)2CF2)[Ac5c][NMeGly(cPent)][NMeD]-{3Oxa8azabicyclo(3.2.1)octane}; lactam N-11), the IC50 is reported as 45 nM.
